Results: US9040523B2, “Antifungal 5,6-dihydro-4H-pyrrolo[1,2-α][1,4]-benzodiazepines and 6H-pyrrolo[1,2-α][1,4]benzodiazepines substituted with benzene derivatives” (JANSSEN PHARMACEUTICA NV, priority 2010, dated 2015)

Key:
Cytochrome P450 2D6 = Cytochrome P450 2D6 (Homo sapiens, UniProt P10635); experiment: Human liver microsomal cytochrome P450 cocktail inhibition assay, Protocol C; details: 2D6_Dextro pIC50, human liver microsomes 0.2 mg/ml; probe dextromethorphan 3 microM
Procedure: (§1) Probe substrates and final assay concentrations with the appropriate internal standard are outlined in Table 6a.
(§2) Assays were performed in 0.1 M phosphate buffer (pH 7.4), containing 0.2 mg/ml human liver microsomes (BD Gentest) and a probe substrate mix consisting of: phenacetin, tolbutamide, S-mephenyloin, dextromethorphan, amodiaquine and midazolam (Table 6a) and a range of test compound concentrations (0 to 30 micromolar) in a total volume of 100 microliters. After a 10 min pre-incubation at 37° C., the reaction was started with addition of NADPH at a final concentration of 1.0 mM. […] The samples are centrifuged for 10 min at 4° C. at 4000 rpm and 60 microliters supernatant is diluted with 180 microliters water. Each sample is injected onto a UPLC/MS system for the simultaneous measurement of the probe substrate metabolites and their associated deuterated internal standards. Percentage inhibition is calculated according to: %-inhibition=(1−Ri/R)*100, whereby Ri and R are the metabolite to internal standard peak area ratios in the presence and absence of inhibitor respectively.
(§3) Percentage inhibition data are plotted against the Log transformed test compound concentration and after curve fitting the IC50-value is determined.

Cytochrome P450 2C19 = Cytochrome P450 2C19 (Homo sapiens, UniProt P33261); experiment: as above; details: 2C19_S-Meph pIC50, human liver microsomes 0.2 mg/ml; probe S-mephenytoin 30 microM
Procedure: as §1, §2, §3

Cytochrome P450 1A2 = target: T1, Cytochrome P450 1A2 (Homo sapiens, UniProt P05177); experiment: as above
T1 sequence (P05177 1-516): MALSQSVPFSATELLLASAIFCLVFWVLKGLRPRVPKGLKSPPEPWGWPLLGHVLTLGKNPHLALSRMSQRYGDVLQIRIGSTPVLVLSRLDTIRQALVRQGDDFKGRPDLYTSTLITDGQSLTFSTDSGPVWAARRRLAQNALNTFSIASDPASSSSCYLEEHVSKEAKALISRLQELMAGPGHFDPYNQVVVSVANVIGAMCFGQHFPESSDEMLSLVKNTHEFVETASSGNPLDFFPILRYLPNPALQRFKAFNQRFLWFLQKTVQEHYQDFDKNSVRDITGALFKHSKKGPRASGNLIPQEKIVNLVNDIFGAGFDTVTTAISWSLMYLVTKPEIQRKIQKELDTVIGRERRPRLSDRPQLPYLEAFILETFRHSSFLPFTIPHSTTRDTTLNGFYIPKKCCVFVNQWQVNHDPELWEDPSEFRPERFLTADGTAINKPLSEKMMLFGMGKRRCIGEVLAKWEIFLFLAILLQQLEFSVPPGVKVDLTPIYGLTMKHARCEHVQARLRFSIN
Procedure: as §1, §2, §3

Cytochrome P450 2C9 = Cytochrome P450 2C9 (Homo sapiens, UniProt P11712); experiment: as above; details: 2C9 Tolbut pIC50, human liver microsomes 0.2 mg/ml; probe tolbutamide 100 microM
Procedure: as §1, §2, §3

[1] = tested on: Trichophyton rubrum B68183; experiment: Antifungal activity in vitro (resazurin susceptibility screen), Inf. C; type: cell-based; details: Trichophyton rubrum B68183; 27 °C, 7 days, resa time 24 hours; read-out: Inf. C pIC50 (converted)
Procedure: (§4) The standard susceptibility screen was performed in 96-well plates (U-bottom, Greiner Bio-One). […] These serial dilutions (10 n1) were then spotted onto test-plates that could be stored in the dark at 4° C. for a maximum period of 2 weeks. […] The different fungal species/isolates (Table 3a) were cryopreserved and 1/1000 diluted in medium just prior to use. A standard inoculum of 200 μl containing 10^3 colony-forming unit (cfu) was then added to each well. A positive control (100% growth=fungal culture without antifungal) and a negative control (0% growth ═RPMI-MOPS medium) were included on each plate. […] [table]

[2] = tested on: Cryptococcus neoformans B66663; experiment: Antifungal activity in vitro (resazurin susceptibility screen), Inf. F; type: cell-based; details: Cryptococcus neoformans, B66663, Cryptococcus neoformans B66663; 37 °C, 24 hours, resa time 4 hours; read-out: Inf. F pIC50 (converted)
Procedure: as §4

Microsporum canis B68128 = experiment: Antifungal activity in vitro (resazurin susceptibility screen), Inf. B; type: cell-based; details: Microsporum canis, B68128, Microsporum canis B68128; 27 °C, 9 days, resa time 24 hours; read-out: Inf. B pIC50 (converted)
Procedure: (§5) The standard susceptibility screen was performed in 96-well plates (U-bottom, Greiner Bio-One). […] These serial dilutions (10 n1) were then spotted onto test-plates that could be stored in the dark at 4° C. for a maximum period of 2 weeks. […] A standard inoculum of 200 μl containing 10^3 colony-forming unit (cfu) was then added to each well. A positive control (100% growth=fungal culture without antifungal) and a negative control (0% growth ═RPMI-MOPS medium) were included on each plate.

[3] = tested on: Trichophyton mentagrophytes B70554; experiment: Antifungal activity in vitro (resazurin susceptibility screen), Inf. G; type: cell-based; details: Trichophyton mentagrophytes, B70554, Trichophyton mentagrophytes B70554; 27 °C, 7 days, resa time 24 hours; read-out: Inf. G pIC50 (converted)
Procedure: as §5

[4] = Liver metabolic stability assay, hLM; type: in vitro ADME, human
Procedure: (§6) Liver preparations (microsomal fractions) were obtained from BD Gentest (San Jose, Calif., US). Metabolic stability was assessed using the following assay conditions. […] The mixture was pre-incubated at 37° C. for 5 min and the enzymatic reaction was started by addition of 5 μM test compound. After 0 (control) and 15 minutes (min), the reactions were terminated by addition of […] (500 μl). The precipitated material was removed by centrifugation at 1200 g for 10 min. The supernatant was analysed by LC-MS/MS on a ThermoFinnigan LCQ Deca XP ion-trap mass spectrometer equipped with an atmospheric pressure chemical ionisation source. Calculation of %-compound remaining was as described by Kantharaj et al. 2003 ((Kantharaj E., Tuytelaars A, Proost P E A, Ongel Z, van […] (2003). Simultaneous measurement of drug metabolic stability and identification of metabolites using ion-trap mass spectrometry.

CYP3A4 = CYP3A4 (Homo sapiens, UniProt P08684); experiment: Cytochrome P450 inhibition, Protocol A, cDNA expressed proteins, fluorogenic substrates; type: in vitro ADME
Procedure: (§7) All fluorogenic based assays were performed in Black Costar 96-well plates according to Crespi et al 1997 with minor modifications (Crespi C L, Miller V P & Penman B W (1997). Microtiter plate assays for inhibition of human, drug-metabolizing cytochromes P450. Anal. Biochem. Vol 248, 1898-1900). Assay conditions are outlined in Table 5a. For cytochrome P450 3A4, three different fluorogenic substrates were used. Each reaction mixture consisted of the appropriate concentration of enzyme, NADPH-generating system (“NADPH” means β-nicotinamide adenine dinucleotide phosphate, reduced), substrate in sodium/potassium buffer (pH 7.4). For each cytochrome P450 batch Michealis-Menten kinetics were determined using 11 concentrations.
(§8) Thereafter, further dilutions were made in acetonitrile. […] The compounds were serially diluted to give final concentrations ranging from 1 nM to 10 μM. The reaction mixtures, whereby 1 μL of buffer was replaced by compound solution, were pre-warmed for 5 min at 37° C. and the reaction was initiated by the addition of β-nicotinamide adenine dinucleotide phosphate (NADP+). Reactions were terminated by addition of stopping reagent and the fluorescence was measured using a Fluoroscan (Labsystems, Brussel, Belgium).
(§9) In Table 5a, the following abbreviations were used: 3-cyano-7-ethocycoumarin (CEC), 7-methoxy-4-trifluoromethylcoumarin (MFC), 3-[2-(N,N-diethyl-N-methylamino)ethyl]-7-methoxy-4-methylcoumarin (AMMC), 7-benzyloxy-trifluoromethyl coumarin (BFC), 7-benzyloxyquinoline (BQ) and dibenzyl fluorescein (DBF).

[5] = tested on: Candida parapsilosis B66126; experiment: Antifungal activity in vitro (resazurin susceptibility screen), Inf. D; type: cell-based; details: Lodderomyces parapsilosis; Candida parapsilosis B66126; 37 °C, 24 hours, resa time 4 hours; read-out: Inf. D pIC50 (converted)
Procedure: as §5

[6] = tested on: Aspergillus fumigatus B42928; experiment: Antifungal activity in vitro (resazurin susceptibility screen), Inf. E; type: cell-based; details: Aspergillus fumigatus B42928; 27 °C, 48 hours, resa time 17 hours; read-out: Inf. E pIC50 (converted)
Procedure: as §4

[7] = tested on: Sporothrix schenkii B62482; experiment: Antifungal activity in vitro (resazurin susceptibility screen), Inf. A; type: cell-based; details: Sporothrix, B62482, Sporothrix schenkii B62482; 27 °C, 4 days, resa time 24 hours; highest in-test concentration 64 μM; read-out: Inf. A pIC50 (converted)
Procedure: as §4

CYP1A2 = target: T2, CYP1A2 (Homo sapiens, UniProt P05177); experiment: Cytochrome P450 inhibition, Protocol A, cDNA expressed proteins, fluorogenic substrate; type: in vitro ADME
T2 sequence (P05177 1-516): T1 sequence (P05177 1-516)
Procedure: as §7, §8, §9

CYP2C9 = CYP2C9 (Homo sapiens, UniProt P11712); experiment: as above; type: in vitro ADME
Procedure: as §7, §8, §9

CYP2D6 = CYP2D6 (Homo sapiens, UniProt P10635); experiment: as above; type: in vitro ADME
Procedure: as §7, §8, §9

[8] = Liver metabolic stability assay, gpLM; type: in vitro ADME, guinea pig
Procedure: as §6

CYP3A4, sequence (P08684 whole entry): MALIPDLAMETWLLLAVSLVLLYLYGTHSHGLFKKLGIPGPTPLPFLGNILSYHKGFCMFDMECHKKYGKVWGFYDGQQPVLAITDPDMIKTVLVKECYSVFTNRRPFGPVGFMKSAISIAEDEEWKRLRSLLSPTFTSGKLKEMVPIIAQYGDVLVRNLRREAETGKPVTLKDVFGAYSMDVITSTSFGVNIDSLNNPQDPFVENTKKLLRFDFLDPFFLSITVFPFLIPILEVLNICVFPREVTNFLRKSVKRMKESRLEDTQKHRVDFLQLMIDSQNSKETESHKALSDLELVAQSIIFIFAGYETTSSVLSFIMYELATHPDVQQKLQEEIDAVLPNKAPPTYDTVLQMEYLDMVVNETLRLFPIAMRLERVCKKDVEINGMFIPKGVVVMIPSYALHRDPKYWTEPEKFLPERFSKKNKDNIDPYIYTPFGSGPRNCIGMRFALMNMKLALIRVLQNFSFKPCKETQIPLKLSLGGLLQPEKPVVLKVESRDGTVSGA
CYP2D6, sequence (P10635 whole entry): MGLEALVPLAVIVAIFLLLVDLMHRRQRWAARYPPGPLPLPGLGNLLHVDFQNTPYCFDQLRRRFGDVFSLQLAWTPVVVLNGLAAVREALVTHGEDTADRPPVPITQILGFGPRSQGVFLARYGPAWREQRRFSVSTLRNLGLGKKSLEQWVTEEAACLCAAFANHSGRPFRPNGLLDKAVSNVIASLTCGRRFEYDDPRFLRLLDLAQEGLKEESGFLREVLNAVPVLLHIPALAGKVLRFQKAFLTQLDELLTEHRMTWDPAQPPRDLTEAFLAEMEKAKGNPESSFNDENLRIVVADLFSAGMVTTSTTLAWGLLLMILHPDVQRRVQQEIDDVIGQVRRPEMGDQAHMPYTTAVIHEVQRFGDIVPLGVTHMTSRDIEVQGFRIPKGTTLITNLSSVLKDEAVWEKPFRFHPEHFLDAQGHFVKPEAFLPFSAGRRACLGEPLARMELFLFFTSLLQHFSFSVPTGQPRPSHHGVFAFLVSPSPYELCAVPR
CYP2C9, sequence (P11712 whole entry): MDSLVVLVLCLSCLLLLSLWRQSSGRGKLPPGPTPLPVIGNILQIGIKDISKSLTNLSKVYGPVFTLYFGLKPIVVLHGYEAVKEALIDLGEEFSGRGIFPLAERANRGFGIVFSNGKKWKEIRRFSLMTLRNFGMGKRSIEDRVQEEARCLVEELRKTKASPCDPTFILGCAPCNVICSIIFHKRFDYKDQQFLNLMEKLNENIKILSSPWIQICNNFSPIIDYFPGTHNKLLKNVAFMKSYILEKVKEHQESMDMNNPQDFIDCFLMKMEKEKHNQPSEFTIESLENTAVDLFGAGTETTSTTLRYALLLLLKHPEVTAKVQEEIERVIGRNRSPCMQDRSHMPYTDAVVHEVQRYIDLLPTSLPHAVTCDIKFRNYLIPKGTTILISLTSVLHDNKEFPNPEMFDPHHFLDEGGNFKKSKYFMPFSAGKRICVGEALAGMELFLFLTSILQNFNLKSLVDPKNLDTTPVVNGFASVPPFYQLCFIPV
Cytochrome P450 2D6, sequence (P10635 whole entry): as the sequence (P10635 whole entry) above
Cytochrome P450 2C19, sequence (P33261 whole entry): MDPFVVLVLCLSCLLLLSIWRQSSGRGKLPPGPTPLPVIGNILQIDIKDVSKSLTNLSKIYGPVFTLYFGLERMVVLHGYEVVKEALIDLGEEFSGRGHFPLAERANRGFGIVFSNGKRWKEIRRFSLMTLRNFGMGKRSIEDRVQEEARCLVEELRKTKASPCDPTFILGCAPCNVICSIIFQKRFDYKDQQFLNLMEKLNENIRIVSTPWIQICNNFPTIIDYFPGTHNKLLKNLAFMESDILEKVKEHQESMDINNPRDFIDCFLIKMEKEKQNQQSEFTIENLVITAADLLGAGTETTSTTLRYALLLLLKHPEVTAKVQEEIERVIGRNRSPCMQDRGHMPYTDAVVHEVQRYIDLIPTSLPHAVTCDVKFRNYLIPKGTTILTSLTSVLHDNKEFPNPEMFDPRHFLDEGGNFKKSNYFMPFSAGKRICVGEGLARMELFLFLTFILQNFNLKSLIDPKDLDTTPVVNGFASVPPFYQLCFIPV
Cytochrome P450 2C9, sequence (P11712 whole entry): as the sequence (P11712 whole entry) above

Row | SMILES | IC50 [1] | IC50 [2] | IC50 (Microsporum canis B68128) | IC50 [3] | IC50 [5] | IC50 [6] | IC50 [7] | melting point | other results
1 | CCc1cccc(C2NCc3c(Cl)cccc3-n3cccc32)c1 (stereo not shown) |  |  |  |  |  |  |  |  | IC50 (Cytochrome P450 2D6): 2 µM; IC50 (Cytochrome P450 2C19): 1.26 µM; IC50 (Cytochrome P450 1A2): > 10 µM; IC50 (Cytochrome P450 2C9): 6.31 µM
2 | CC(=O)c1cc(C2NCc3c(Cl)cc(Cl)cc3-n3cccc32)ccc1F (stereo not shown) [Compound 13, 1-[5-(7,9-dichloro-5,6-dihydro-4H-pyrrolo[1,2-a][1,4]benzodiazepin-4-yl)-2-fluorophenyl]-ethanone] | 2 µM | > 63.1 µM | 7.94 µM | > 63.1 µM | > 63.1 µM | > 63.1 µM | > 63.1 µM |  | %-compound metabolised_Met_hLM ([4]; human, microsomes, 0.25 h, 5 μM, pH 7.4): 69%; hCYP3A4_BFC_Pct_Inh (CYP3A4; human, 10 μM, pH 7.4): 81%; hCYP3A4_BQ_Pct_Inh (CYP3A4; human, 10 μM, pH 7.4): 78%; hCYP3A4_DBF_Pct_Inh (CYP3A4; human, 10 μM, pH 7.4): 91%; hCYP1A2_CEC_Pct_Inh (CYP1A2; human, 10 μM, pH 7.4): 64%; hCYP2C9_MFC_Pct_Inh (CYP2C9; human, 10 μM, pH 7.4): 61%; hCYP2D6_AMMC_Pct_Inh (CYP2D6; human, 10 μM, pH 7.4): 51%; %-compound metabolised Met_gpLM ([8]; guinea pig, microsomes, 0.25 h, 5 μM, pH 7.4): 95%
3 | CC(=O)c1ccc(C2NCc3cc(Cl)cc(Cl)c3-n3cccc32)cc1.Cl (stereo not shown) [Compound 14, 1-[4-(8,10-dichloro-5,6-dihydro-4H-pyrrolo[1,2-a][1,4]benzodiazepin-4-yl)phenyl]-ethanone .HCl] | 0.631 µM | 50.1 µM | 2.51 µM | 25.1 µM | > 63.1 µM | > 63.1 µM | 25.1 µM | 259.3 to 264.5 °C | 
4 | CC(=O)c1cc(C2=NCc3c(Cl)cc(Cl)cc3-n3cccc32)ccc1F [Compound 23, 1-[5-(7,9-dichloro-6H-pyrrolo[1,2-a][1,4]benzodiazepin-4-yl)-2-fluorophenyl]-ethanone] | > 63.1 µM | > 63.1 µM | > 63.1 µM | > 63.1 µM | > 63.1 µM | > 63.1 µM | > 63.1 µM | 192.3 to 193.4 °C | %-compound metabolised_Met_hLM ([4]; human liver microsomes, 1 mg protein/ml, 5 μM test compound, 15 min, 37 °C): 22%; hCYP3A4_BFC_Pct_Inh (CYP3A4; % inhibition at 10 μM, substrate BFC, cDNA expressed protein): 51%; hCYP3A4_BQ_Pct_Inh (CYP3A4; % inhibition at 10 μM, substrate BQ, cDNA expressed protein): 56%; hCYP3A4_DBF_Pct_Inh (CYP3A4; % inhibition at 10 μM, substrate DBF, cDNA expressed protein): 40%; hCYP1A2_CEC_Pct_Inh (CYP1A2; % inhibition at 10 μM, substrate CEC, cDNA expressed protein): 17%; hCYP2C9_MFC_Pct_Inh (CYP2C9; % inhibition at 10 μM, substrate MFC, cDNA expressed protein): 51%; hCYP2D6_AMMC_Pct_Inh (CYP2D6; % inhibition at 10 μM, substrate AMMC, cDNA expressed protein): 3%; %-compound metabolised Met_gpLM ([8]; guinea pig microsomes, 1 mg protein/ml, 5 μM test compound, 15 min, 37 °C): 39%
